Source: US7138426B2, “Estrogen receptor modulators” (Merck & Co., Inc., priority 2003, dated 2006)

Tested on: MCF-7 cells
Assay: MCF-7 Estrogen Dependent Proliferation Assay
Format: cell-based
Settings: Homo sapiens, MCF7, addition to Estrogen Depleted Media (EDM), read-out: EC50 of growth stimulation of MCF-7 cells
Excerpt: MCF-7 cells (ATCC #HTB-22) are human mammary gland adenocarcinoma cells that require estrogen for growth. The growth media (GM) for the MCF-7 cells is Minimum Essential Media (without phenol red) supplemented with fetal bovine serum (FBS) to 10%. The FBS serves as the sole source of estrogen and this GM supports the full growth of the cells and is used for the routine growth of the cell cultures. When MCF-7 cells are placed in a media in which 10% Charcoal-Dextran treated fetal bovine serum (CD-FBS) is substituted for FBS, the cells will cease to divide but will remain viable. […] The addition of estradiol to EDM stimulates the growth of the MCF-7 cells in a dose dependent manner with an EC50 of 2 pM. Growing MCF-7 cells are washed several times with EDM and the cultures then maintained in EDM for a minimum of 6 days in order to deplete the cells of endogenous estrogen. […] At this point, the culture supernatants are aspirated, the cells washed 2× with PBS, the wash solution aspirated and the protein content of each well determined. Each drug dilution is evaluated on a minimum of 5 wells and the range of dilution of the test compounds in the assay is 0.001 nM to 1000 nM. […] The assay is terminated at day 8–10 when the appropriate controls reach 80–90% confluency and the protein content of each well is determined as above.

`C[C@]12CC[C@@H]3c4ccc(O)cc4CC[C@H]3[C@@H]1CC[C@@H]2O` [estradiol] gave an EC50 of 2 pM.
